# Reference: BindingDB's records for doi:10.1021/jm00041a023 (Merck Research Laboratories, 1994)
# Molecular target: T1, Gag-Pol polyprotein [588-1027]/[588-1147] (Human immunodeficiency virus 1, UniProt P04585)
# T1 construct: 588-1027; 588-1147
# Assay: HIV-1 RT Assay
# Settings: pH 8.2
# Text: The IC50 of reverse transcriptase is the concentration that inhibits 50% of recombinant HIV-1 RT RNA-directed DNA polymerase activity in vitro.
compound,measurement,value
"O=C1Nc2ccc(Cl)cc2C(C#Cc2cc([N+](=O)[O-])ccn2)(C2CC2)N1 (stereo unspecified) [6-chloro-4-cyclopropyl-4-[2-(4-nitropyridin-2-yl)ethynyl]-1,2,3,4-tetrahydroquinazolin-2-one]",IC50,> 10 µM
